Values after ≈ are worked out from the molar mass of the structure shown. Read-outs that look alike come from different tables or passages of the source.
System: Neisseria gonorrhoeae strains
Format: cell-based
From the text: Untreated controls and blank wells were included.

Compound `C[C@H]1COc2c(N3CC[C@@H](Nc4ncccn4)C3)c(F)cc3c(=O)c(C(=O)O)cn1c23` [KSN-82-L22] has an MIC (strain FDA-CDC AR-BANK#0173, resistance CIP-R PEN-R TET-R) of 2 µg/mL (≈ 4.7 µM), an MIC (strain FDA-CDC AR-BANK#0174, resistance CIP-R PEN-R TET-R) of 2 µg/mL (≈ 4.7 µM) and an MIC (strain FDA-CDC AR-BANK#0175, resistance CIP-S PEN-I TET-I) of no more than 0.03125 µg/mL. It also gave an MIC (strain FDA-CDC AR-BANK#0176, resistance CIP-R PEN-R TET-R) of 2 µg/mL (≈ 4.7 µM), an MIC (strain FDA-CDC AR-BANK#0177, resistance CIP-S PEN-I TET-R) of no more than 0.03125 µg/mL and an MIC (strain FDA-CDC AR-BANK#0178, resistance CIP-R PEN-R TET-R) of 2 µg/mL (≈ 4.7 µM). It also gave an MIC (strain FDA-CDC AR-BANK#0179, resistance CIP-S PEN-S TET-I) of no more than 0.03125 µg/mL, an MIC (strain FDA-CDC AR-BANK#0180, resistance CIP-R PEN-I TET-R) of 2 µg/mL (≈ 4.7 µM) and an MIC (strain FDA-CDC AR-BANK#0181, resistance CIP-S PEN-I TET-R) of no more than 0.03125 µg/mL. It also gave an MIC (strain FDA-CDC AR-BANK#0182, resistance CIP-R PEN-I TET-R) of 2 µg/mL (≈ 4.7 µM), an MIC (strain FDA-CDC AR-BANK#0183, resistance CIP-R PEN-R TET-R) of 2 µg/mL (≈ 4.7 µM) and an MIC (strain FDA-CDC AR-BANK#0184, resistance CIP-R PEN-R TET-R) of 2 µg/mL (≈ 4.7 µM). For the same compound, the MIC (strain FDA-CDC AR-BANK#0185, resistance CIP-R PEN-I TET-R) was 2 µg/mL (≈ 4.7 µM), the MIC (strain FDA-CDC AR-BANK#0186, resistance CIP-R PEN-R TET-R) was 1 µg/mL (≈ 2.35 µM) and the MIC (strain FDA-CDC AR-BANK#0187, resistance CIP-R PEN-I TET-R) was 2 µg/mL (≈ 4.7 µM). The MIC (strain FDA-CDC AR-BANK#0188, resistance CIP-R PEN-I TET-R) was 1 µg/mL (≈ 2.35 µM), the MIC (strain FDA-CDC AR-BANK#0189, resistance CIP-R PEN-R TET-R) was 2 µg/mL (≈ 4.7 µM) and the MIC (strain FDA-CDC AR-BANK#0190, resistance CIP-R PEN-R TET-R) was 2 µg/mL (≈ 4.7 µM). For the same compound, the MIC (strain FDA-CDC AR-BANK#0191, resistance CIP-R PEN-R TET-R) was 2 µg/mL (≈ 4.7 µM), the MIC (strain FDA-CDC AR-BANK#0192, resistance CIP-R PEN-R TET-R) was 2 µg/mL (≈ 4.7 µM) and the MIC (strain FDA-CDC AR-BANK#0193, resistance CIP-S PEN-R TET-R) was no more than 0.03125 µg/mL. The MIC (strain FDA-CDC AR-BANK#0194, resistance CRO-NS CIP-S PEN-I TET-R) was no more than 0.03125 µg/mL, the MIC (strain FDA-CDC AR-BANK#0195, resistance CIP-R PEN-I TET-R) was 2 µg/mL (≈ 4.7 µM) and the MIC (strain FDA-CDC AR-BANK#0196, resistance CIP-R PEN-R TET-R) was 2 µg/mL (≈ 4.7 µM). It also gave an MIC (strain FDA-CDC AR-BANK#0197, resistance CIP-R PEN-I TET-I) of 2 µg/mL (≈ 4.7 µM), an MIC (strain FDA-CDC AR-BANK#0198, resistance CIP-R PEN-R TET-R) of 2 µg/mL (≈ 4.7 µM) and an MIC (strain FDA-CDC AR-BANK#0199, resistance CIP-S PEN-R TET-R) of no more than 0.03125 µg/mL. The MIC (strain FDA-CDC AR-BANK#0200, resistance CIP-R PEN-R TET-R) was 2 µg/mL (≈ 4.7 µM), the MIC (strain FDA-CDC AR-BANK#0201, resistance CIP-R PEN-R TET-R) was 2 µg/mL (≈ 4.7 µM) and the MIC (strain FDA-CDC AR-BANK#0202, resistance CIP-S PEN-S TET-I) was no more than 0.03125 µg/mL. For the same compound, the MIC (strain FDA-CDC AR-BANK#0203, resistance CIP-R PEN-R TET-R) was 2 µg/mL (≈ 4.7 µM), the MIC (strain FDA-CDC AR-BANK#0204, resistance CIP-R PEN-I TET-R) was 2 µg/mL (≈ 4.7 µM) and the MIC (strain FDA-CDC AR-BANK#0205, resistance CIP-R PEN-R TET-R) was 2 µg/mL (≈ 4.7 µM). For the same compound, the MIC (strain FDA-CDC AR-BANK#0206, resistance CIP-R PEN-R TET-R) was 2 µg/mL (≈ 4.7 µM), the MIC (strain FDA-CDC AR-BANK#0207, resistance CIP-R PEN-R TET-R) was 2 µg/mL (≈ 4.7 µM) and the MIC (strain FDA-CDC AR-BANK#0208, resistance CIP-R PEN-I TET-R) was 2 µg/mL (≈ 4.7 µM). For the same compound, the MIC (strain FDA-CDC AR-BANK#0209, resistance CIP-R PEN-I TET-R) was 2 µg/mL (≈ 4.7 µM), the MIC (strain FDA-CDC AR-BANK#0210, resistance CIP-R PEN-I TET-I) was 2 µg/mL (≈ 4.7 µM) and the MIC (strain FDA-CDC AR-BANK#0211, resistance CIP-R PEN-R TET-R) was 2 µg/mL (≈ 4.7 µM). The MIC (strain FDA-CDC AR-BANK#0212, resistance CIP-R PEN-I TET-R) was 2 µg/mL (≈ 4.7 µM), the MIC (strain FDA-CDC AR-BANK#0213, resistance CIP-R PEN-I TET-I) was 1 µg/mL (≈ 2.35 µM) and the MIC (strain FDA-CDC AR-BANK#0214, resistance CIP-R PEN-R TET-R) was 2 µg/mL (≈ 4.7 µM). For the same compound, the MIC (strain NCTC 13817, resistance PEN-R TET-I) was 0.5 µg/mL (≈ 1.18 µM), the MIC (strain NCTC 13818, resistance CIP-R OFX-R PEN-R TET-R) was 2 µg/mL (≈ 4.7 µM) and the MIC (strain NCTC 13819, resistance FEP-NS CAZ-NS CIP-R OFX-R PEN-R TET-I) was 2 µg/mL (≈ 4.7 µM). The MIC (strain NCTC 13820, resistance FEP-NS CFM-NS CAZ-NS CRO-NS CIP-R OFX-R PEN-R TET-R) was 2 µg/mL (≈ 4.7 µM), the MIC (strain NCTC 13821, resistance FEP-NS CFM-NS CAZ-NS CRO-NS CIP-R PEN-I TET-I) was 2 µg/mL (≈ 4.7 µM) and the MIC (strain NCTC 13822, resistance FEP-NS CFM-NS CAZ-NS CIP-R OFX-R PEN-R TET-I) was 2 µg/mL (≈ 4.7 µM). The MIC (strain TCDC-NG08107, resistance PEN-R CFM-R CPD-R CIP-R) was 2 µg/mL (≈ 4.7 µM).

Reference: patent US20210261570A1, “ANTIBIOTIC RESISTANCE BREAKERS” (KING'S COLLEGE LONDON, priority 2017, published 2021)
